# How the values were obtained:
# Type in all cases: in vivo
# [1] = tested on: chickweed (Stellaria media); assay: Test C postemergence; settings: for Chickweed plant response rating: scale 0 to 100 (0 no effect, 100 complete control); for Plant response rating, Chickweed: scale 0 to 100
# Summary of the method: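 Percent control is a visual rating (0 none, 100 complete) taken against untreated plants after 12 to 14 days of greenhouse growth. Applications were made preemergence to seeded pots and postemergence to plants at the 1- to 4-leaf stage, in a non-phytotoxic surfactant-containing solvent.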
# [2] = tested on: giant foxtail (Setaria faberii); assay: Test C pre/postemergence; settings: for Foxtail, Giant plant response rating: scale 0 to 100 (0 no effect, 100 complete control)
# From the text: (§1) Seeds or nutlets of plant species selected from bermudagrass (Cynodon dactylon), Surinam grass (Brachiaria decumbens), cocklebur (Xanthium strumarium), corn (Zea mays), crabgrass (Digitaria sanguinalis), woolly cupgrass (Eriochloa villosa), giant foxtail (Setaria faberii), goosegrass (Eleusine indica), johnsongrass (Sorghum halepense), kochia (Kochia scoparia), lambsquarters (Chenopodium album), morningglory (Ipomoea coccinea), eastern black nightshade (Solanum ptycanthum), yellow nutsedge (Cyperus esculentus), pigweed (Amaranthus retroflexus), common ragweed (Ambrosia elatior), soybean (Glycine max), common (oilseed) sunflower (Helianthus annuus), and velvetleaf (Abutilon theophrasti) were planted and treated preemergence with test chemicals formulated in a non-phytotoxic solvent mixture which included a surfactant.
# (§2) At the same time, plants selected from these crop and weed species and also winter barley (Hordeum vulgare), blackgrass (Alopecurus myosuroides), canarygrass (Phalaris minor), chickweed (Stellaria media), downy brome (Bromus tectorum), green foxtail (Setaria viridis), Italian ryegrass (Lolium multiflorum), wheat (Triticum aestivum), wild oat (Avena fatua) and windgrass (Apera spica-venti) were treated with postemergence applications of some of the test chemicals formulated in the same manner. Plants ranged in height from 2 to 18 cm (1- to 4-leaf stage) for postemergence treatments. Plant species in the flooded paddy test consisted of rice (Oryza sativa), umbrella sedge (Cyperus difformis), duck salad (Heteranthera limosa) and barnyardgrass (Echinochloa crus-galli) grown to the 2-leaf stage for testing. Treated plants and controls were maintained in a greenhouse for 12 to 14 days, after which time all species were compared to controls and visually evaluated. Plant response ratings, summarized in Table C, are based on a scale of 0 to 100 where 0 is no effect and 100 is complete control. A dash (-) response means no test result.
# [3] = tested on: crabgrass (Digitaria sanguinalis); assay: Test C pre/postemergence; settings: for Crabgrass plant response rating: scale 0 to 100 (0 no effect, 100 complete control)
# From the text: as §1, §2
# [4] = tested on: Surinam grass (Brachiaria decumbens); assay: Test C pre/postemergence; settings: for Surinam Grass plant response rating: scale 0 to 100 (0 no effect, 100 complete control)
# From the text: as §1, §2
# [5] = tested on: yellow nutsedge (Cyperus esculentus); assay: Test C pre/postemergence; settings: for Nutsedge, Yellow plant response rating: scale 0 to 100 (0 no effect, 100 complete control)
# From the text: as §1, §2
# [6] = Postemergence, 250 g ai/ha, scale 0 to 100
# [7] = Postemergence, 500 g ai/ha, scale 0 to 100
# [8] = Preemergence, 62 g ai/ha, scale 0 to 100, 0 no effect, 100 complete control
# [9] = Preemergence, 125 g ai/ha, scale 0 to 100
# [10] = Preemergence, 250 g ai/ha, scale 0 to 100
# [11] = Preemergence, 500 g ai/ha, scale 0 to 100
smiles,measurement,setting,value
Nc1nc(C2CC2)nc(C=NO)c1Br [Compound 27],Chickweed plant response rating,[1]; 62 g ai/ha,0
same,Chickweed plant response rating,[1]; 125 g ai/ha,0
same,"Plant response rating, Chickweed",[1]; 250 g ai/ha,0
same,"Plant response rating, Chickweed",[1]; 500 g ai/ha,0
same,"Foxtail, Giant plant response rating","[2]; Postemergence, 62 g ai/ha",0
same,"Foxtail, Giant plant response rating","[2]; Postemergence, 125 g ai/ha",0
same,"Plant response rating, Foxtail, Giant",[2]; [6],0
same,"Plant response rating, Foxtail, Giant",[2]; [7],0
same,"Plant response rating, Foxtail, Giant",[2]; [8],0
same,"Plant response rating, Foxtail, Giant",[2]; [9],0
same,"Plant response rating, Foxtail, Giant",[2]; [10],0
same,"Plant response rating, Foxtail, Giant",[2]; [11],20
same,Crabgrass plant response rating,"[3]; Postemergence, 62 g ai/ha",0
same,Crabgrass plant response rating,"[3]; Postemergence, 125 g ai/ha",0
same,"Plant response rating, Crabgrass",[3]; [6],5
same,"Plant response rating, Crabgrass",[3]; [7],30
same,"Plant response rating, Crabgrass",[3]; [8],0
same,"Plant response rating, Crabgrass",[3]; [9],0
same,"Plant response rating, Crabgrass",[3]; [10],0
same,"Plant response rating, Crabgrass",[3]; [11],85
same,Surinam Grass plant response rating,"[4]; Postemergence, 62 g ai/ha",0
same,Surinam Grass plant response rating,"[4]; Postemergence, 125 g ai/ha",0
same,"Plant response rating, Surinam Grass",[4]; [6],0
same,"Plant response rating, Surinam Grass",[4]; [7],0
same,"Plant response rating, Surinam Grass",[4]; [8],0
same,"Plant response rating, Surinam Grass",[4]; [9],0
same,"Plant response rating, Surinam Grass",[4]; [10],20
same,"Plant response rating, Surinam Grass",[4]; [11],30
same,"Nutsedge, Yellow plant response rating","[5]; Postemergence, 62 g ai/ha",0
same,"Nutsedge, Yellow plant response rating","[5]; Postemergence, 125 g ai/ha",0
same,"Plant response rating, Nutsedge, Yellow",[5]; [6],0
same,"Plant response rating, Nutsedge, Yellow",[5]; [7],0
same,"Plant response rating, Nutsedge, Yellow",[5]; [8],0
same,"Plant response rating, Nutsedge, Yellow",[5]; [9],0
same,"Plant response rating, Nutsedge, Yellow",[5]; [10],0
same,"Plant response rating, Nutsedge, Yellow",[5]; [11],20
